We go through one compound from patent US20230346986A1, “METHODS AND AGENTS FOR THE DETECTION AND TREATMENT OF CANCER” (CASE WESTERN RESERVE UNIVERSITY, priority 2019, published 2023).

The experiment concerns the target T1, PSMA (Homo sapiens, UniProt Q04609).
T1 construct: endogenous in cells; host or cells: LNcap cells
The experiment can be described thus: Competition binding assay with 3H-ZJ24 on LNcap cells. The note with it: 3H-ZJ24 12 nmol/L, 1 h at 37° C. How it is done: […] used to test the binding affinity of NPs. Specifically, […] cultured in RPMI1640 medium, harvested, washed with 0.5 mM cold Tris buffer, and divided into 1.5 mL Eppendorf tubes at 5×10^5 cells per tube. […] All the tubes were then centrifuged and cells were washed three times with cold PBS. […] The concentration of ligands required to inhibit 50% of binding (IC50) was determined using GraphPad Prism 3.0.

T1 sequence (Q04609 whole entry): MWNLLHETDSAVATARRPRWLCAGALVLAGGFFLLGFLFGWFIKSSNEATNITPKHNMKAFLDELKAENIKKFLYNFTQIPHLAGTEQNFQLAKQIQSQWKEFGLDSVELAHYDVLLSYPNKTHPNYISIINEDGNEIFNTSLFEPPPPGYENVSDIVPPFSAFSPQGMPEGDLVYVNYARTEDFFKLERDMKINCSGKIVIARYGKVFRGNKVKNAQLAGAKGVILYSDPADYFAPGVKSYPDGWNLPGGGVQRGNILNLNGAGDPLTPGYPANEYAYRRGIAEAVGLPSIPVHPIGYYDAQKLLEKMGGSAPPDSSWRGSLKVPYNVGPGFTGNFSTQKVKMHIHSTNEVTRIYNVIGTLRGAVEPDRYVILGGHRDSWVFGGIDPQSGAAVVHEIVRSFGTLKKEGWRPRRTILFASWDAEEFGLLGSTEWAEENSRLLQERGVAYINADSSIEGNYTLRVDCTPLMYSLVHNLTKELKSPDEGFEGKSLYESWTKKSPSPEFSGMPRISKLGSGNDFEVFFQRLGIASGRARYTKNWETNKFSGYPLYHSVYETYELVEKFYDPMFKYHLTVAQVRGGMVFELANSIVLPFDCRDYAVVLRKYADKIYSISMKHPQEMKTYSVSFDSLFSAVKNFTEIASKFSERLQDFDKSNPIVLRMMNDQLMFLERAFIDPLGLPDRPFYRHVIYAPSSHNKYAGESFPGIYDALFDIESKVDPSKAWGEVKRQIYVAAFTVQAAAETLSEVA

With `CSC[C@H](NC(=O)N[C@@H](CCC(=O)O)C(=O)O)C(=O)O` [ZJ24], the IC50 was found to be 9.79 nM.
